What was measured:
HeLa cells = assay: Time-lapse live imaging of mitotic progression and cell fate in HeLa cells (H2B-mCherry, EGFP-α-tubulin); type: cell-based, human
Description: To determine whether these 34 compounds also induce mitotic abnormalities in human cells, a second screen of these compounds was conducted using HeLa cells. We used time-lapse microscopy to monitor mitotic progression in HeLa cells expressing mCherry-tagged histone H2B to mark chromatin, and EGFP-tagged α-tubulin to monitor microtubules over a 24 h time period in the presence of 2 µM of each of the 34 compounds. The duration of mitosis was determined by live-cell imaging, defined as the period from prophase to cytokinesis based on chromatin and microtubule morphologies (figure 2a). The control DMSO-treated cells progressed through mitosis with a mean mitotic duration of 77 ± 6 min. Among the 34 compounds we tested, nine caused a significant increase in mitotic duration in human cells (figure 2a), ranging from 122 ± 42 min (F15) to 720 ± 53 min (C16). […] As described in the Discussion, we have not carried out a detailed analysis for B8 in this study. To determine whether these cell deaths were caused by apoptosis, caspase activity was assayed for 24 h using time-lapse microscopy in the presence of the 12 compounds. Caspase 3 and Caspase 7 activities were observed 12–24 h after the addition of the compounds (electronic supplementary material, figure S1A). There were also other indications of apoptosis including the morphological chances reminiscing of membrane blebbing, chromatin condensation and cell explosion (electronic supplementary material, figure S1B). Caspase-mediated apoptosis induction is similar to the effects of mitotic arrest caused by anti-microtubule drugs in HeLa cells. […] We conclude that these 12 compounds cause mitotic arrest followed by cell death through apoptotic activation.
Figure 2. Effect of compounds on mitotic progression in HeLa cell (a). Duration of mitosis was analysed by live imaging of HeLa cells stably expressing H2B-mcherry (red) and EGFP-a tubulin (green) treated in the presence of 0.5 µM (K1, L1, J1) or 2 µM (C16, E2, O12, M2, I15, J3, I2, A15, F15) compound for 24 h and the time in mitosis was measured in 200 cells. DMSO-treated cells are shown, which served as the vehicle control. Show mean as ‘+’. (b). The Cell fate after mitosis (normal division, abnormal division or cell death) was quantitatively assessed after the mitotic arrest observed in (a). (c) Dose-dependent change of phenotypes after mitotic arrest with K1, L1 and J1.
For live-cell imaging experiments, 200 000 cells were seeded onto glass-bottom culture dishes (MatTek P35GC-1.5-14-C). Cells were grown overnight before the addition of the compound, and the culture media was replaced with fresh media lacking phenol red to limit phototoxicity before imaging.
Live-cell imaging was performed in a LCV110 U VivaView FL incubator microscope (Olympus) equipped with an X-Cite-exacte illumination source (Excelitas Technologies) and Orca-R2 CCD camera (Hamamatsu Photonics). For screening, images were acquired with a 20 × objective every 15 min for 24–48 h in the differential interference contrast (DIC), m-cherry and GFP channels. For assessment of apoptosis, the cells were monitored every 15 min for 24 h. Individual cells were manually analysed using the CellCognition browser.

MDR-sup fission yeast = assay: Phenotypic assay of microtubule organization in MDR-sup strain expressing GFP-atb2; type: cell-based, Schizosaccharomyces pombe; settings: 5 µM compound for 3 h, living cells
Description: We have previously screened a collection of 10 371 small molecules to identify compounds that inhibit the growth of a multiple-drug-sensitive fission yeast strain (MDR-sup). We selected 248 compounds (2.4% of the total) that inhibited fission yeast cell growth rate by at least 50% (figure 1a) and subsequently conducted a phenotypic screen of these to identify drugs that affect microtubule organization (figure 1b). After the MDR-sup cells were treated with 5 µM of each compound for 3 h, microtubules were monitored using GFP tagged α-tubulin Atb2 and live-cell fluorescence microscopy. In untreated interphase cells, microtubules form long cytoplasmic arrays that run parallel to the long cellular axis, and in mitotic cells, microtubules form a bipolar spindle in the nucleus and the cytoplasmic microtubules disappear (figure 1c(i), arrow). […] This screen identified 34 compounds that induced cytological phenotypes indicative of defects in microtubule organization or function.
Figure 1. Phenotypic screening in MDR-sup fission yeast (a). Growth assay screening using MDR-sup strain. The optical density was measured with 20 µM of each compound and 248 compounds that gave at least 50% growth inhibition were used for further phenotyping marked by the red lines. Growth was normalized to DMSO-treated cells. (b) Schematic representation of the screening workflow. (c) Examples of the phenotypic assay using L1, P2 and B8 in the MDR-sup strain expressing GFP-atb2 (tubulin) are shown. Cells were incubated in 5 µM compound for 3 h and atb2 signals were detected in living cells. (i) Cells in absence of any compound. In interphase cells, α-tubulin Atb2 protein was detected in the nucleus and interphase microtubules, while mitotic spindles were detected in mitotic cells (arrows). (ii) In the presence of L1, microtubules were depolymerized and tubulin signals were detected distributed throughout the nucleus. (iii) In the presence of P2, short spindles were detected but anaphase spindles were not. (iv) In the presence of B8, interphase microtubules were not detected, while, dots were detected. […]

[1] = test system: BT549, CAL51 and MB-157 breast cancer cell lines; assay: Viability dose-response in breast cancer cell lines; type: cell-based; settings: Homo sapiens, 96 h; range over three breast cancer cell lines; 4 days of treatment
Description: The sensitivity of the inhibitors L1, J3, A15 and M2 were evaluated in three breast cancer cell lines, (BT549, CAL51 and MB-157) and a non-cancer cell line from the human mammary gland, MCF-10A (figure 8). Drug sensitivity was determined by culturing breast cancer cell lines (black lines) and the non-cancer cell line (red line) with a range of concentrations of each compound, and viability was measured after 4 days of treatment in triplicate.
Figure 8. Dose–response curves in three cancer cell lines (BT549, CAL51 and MB-157) are shown in black and non-cancer cell line; MCF-10A is shown in red. They were subjected to a dose–response matrix of the tubulin inhibitor, L1, A15, M2 and J3, respectively. Viability relative to the vehicle control was measured […] after treatment. Mean ± s.e.m. for n = 3 experiments is shown.
Cells were plated in 384-well plates at a density of 800 cells per well in 22.5 µl of media. After 24 h, 2.5 µl drug was diluted in media and was added to each well. Following 5 days of incubation, viability was assessed using CellTiter-Glo (Promega) according to the manufacture's protocol. Luminescence in each well was measured using a Synergy Neo2 plate reader (BioTek).

## COc1cc(Br)cc2c1OC(c1ccc3c(c1)OCO3)C([N+](=O)[O-])=C2 (centres unmarked) [L1]
HeLa cells; 0.5 µM compound
  cell fate: arrested cells initially in mitosis, followed by cell death
HeLa cells; 2 µM compound
  cell fate: immediately induced cell death independent of the phase of the cell cycle
HeLa cells; 0.1 and 0.25 µM compound
  phenotype after mitotic arrest: abnormal multipolar, asymmetric cell divisions, generating 3–4 daughter cells
MDR-sup fission yeast
  microtubule phenotype (GFP-atb2 tubulin signal): microtubules are undetectable, and α-tubulin accumulates in the nucleus
[1]
  IC50: 2400 to 3100 nM

— PMC8424300, “Identification of novel microtubule inhibitors effective in fission yeast and human cells and their effects on breast cancer cell lines” (Open Biology, 2021)
